Consider 18 compounds from patent publication US7786083B2, “Metastin derivatives and use thereof” (Takeda Pharmaceutical Company Limited, priority 2006, dated 2010).

Molecules are shown by their SMILES. *1 amine or outer side, *2 acyl side, *3 side chain or, on linkers, in order; H or OH if unused. Where a SMILES comes first, the peptide text is derived from it. [ ]: non-standard residue; d: D form. Glyψ(E-CHCH)Leu = CC(C)C[C@H](/C=C/CN[*:1])C(=O)[*:2]; Glyψ(CH2S)Leu = CC(C)C[C@H](SCCN[*:1])C(=O)[*:2]; X7 = O=C(C/C=C/[C@H](Cc1ccccc1)N[*:1])[*:2]; X9 = O=C(CCC[C@H](Cc1ccccc1)N[*:1])[*:2]; Phe(4-Me) = Cc1ccc(C[C@H](N)C(=O)O)cc1; X1 = CC(C)C[C@H](CCCN[*:1])C(=O)[*:2]; Arg(Me) = CNC(=N)NCCC[C@H](N)C(=O)O; Dap(CONH2) = NC(=O)NC[C@H](N)C(=O)O; Ala(cPr) = N[C@@H](CC1CC1)C(=O)O; Hyp = O=C(O)[C@@H]1C[C@@H](O)CN1; Cha = N[C@@H](CC1CCCCC1)C(=O)O; Cit = NC(=O)NCCC[C@H](N)C(=O)O; Cba = N[C@@H](CC1CCC1)C(=O)O; Nva = CCC[C@H](N)C(=O)O; Abu = CC[C@H](N)C(=O)O

For the test, the system named is metastin receptors. Kind of test: Measurement of agonist activity by assaying changes in intracellular calcium ion level (FLIPR, Fluo-4 NW). It is filed as cell-based, human. Particulars: specific activity of the EC50 of a test compound based on the EC50 of Metastin (45-54), metastin receptor expression CHO cells. An outline of the steps:
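CHO/dhfr⁻ cells stably expressing human or rat metastin receptor, seeded 3×10^4/well for 24 h, loaded with Fluo-4 NW 30 min at 37 °C in HBSS with 0.1% BSA, 20 mM HEPES pH 7.4 and 1 mM probenecid. Compound-stimulated intracellular calcium change read on FLIPR.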
For orientation: Calcium flux is commonly read through the fluorescence of an indicator in the cells.

`CNC(=N)NCCC[C@H](NC(=O)[C@@H](/C=C/CNC(=O)[C@H](CC1CCCCC1)NC(=O)[C@@H](NC(=O)[C@H](CCCNC(N)=O)NC(=O)[C@@H]1C[C@@H](O)CN1C(=O)[C@@H](Cc1ccc(O)cc1)NC(C)=O)[C@@H](C)O)CC(C)C)C(=O)N[C@@H](Cc1c[nH]c2ccccc12)C(N)=O` [Compound No. 914, des(1)-Ac-[D-Tyr2,Hyp3,Cit4,Thr5,Cha6,Gly7Ψ((E)CH═CH)Leu8,Arg(Me)9,Trp10]MS10] (Ac-[dY][Hyp][Cit]T[Cha][Glyψ(E-CHCH)Leu][Arg(Me)]W-NH2): the “Specific Activity” value amounted to 0.9.
The result for `CNC(=N)NCCC[C@H](NC(=O)[C@@H](/C=C/CNC(=O)[C@H](Cc1ccccc1)NC(=O)[C@@H](NC(=O)[C@H](CC(N)=O)NC(=O)[C@@H]1C[C@@H](O)CN1C(=O)[C@@H](Cc1ccc(O)cc1)NC(C)=O)[C@@H](C)O)CC(C)C)C(=O)N[C@@H](Cc1c[nH]c2ccccc12)C(N)=O` [Compound No. 892, des(1)-Ac-[D-Tyr2,Hyp3,Thr5,Gly7Ψ((E)CH═CH)Leu8,Arg[(Me)9,Trp10]MS10] (Ac-[dY][Hyp]NTF[Glyψ(E-CHCH)Leu][Arg(Me)]W-NH2) reads 0.6; that for `CC(=O)N[C@H](Cc1ccc(O)cc1)C(=O)N1C[C@H](O)C[C@H]1C(=O)N[C@@H](CC(N)=O)C(=O)N[C@H](C(=O)N[C@@H](CC1CCCCC1)C(=O)NCCC[C@@H](CC(C)C)C(=O)N[C@@H](CCCNC(=N)N)C(=O)N[C@@H](Cc1c[nH]c2ccccc12)C(N)=O)[C@@H](C)O` [Compound No. 956, des(1)-Ac-[D-Tyr2,Hyp3,Thr5,Cha6,Gly7Ψ(CH2CH2)Leu8,Trp10]MS10] (Ac-[dY][Hyp]NT[Cha][X1]RW-NH2), 1.1; that for `CNC(=N)NCCC[C@H](NC(=O)[C@H](CC(C)C)SCCNC(=O)[C@H](Cc1ccccc1)NC(=O)[C@@H](NC(=O)[C@H](CC(N)=O)NC(=O)[C@@H]1C[C@@H](O)CN1C(=O)[C@@H](Cc1ccc(O)cc1)NC(C)=O)[C@@H](C)O)C(=O)N[C@@H](Cc1c[nH]c2ccccc12)C(N)=O` [Compound No. 929, des(1)-Ac-[D-Tyr2,Hyp3,Thr5,Gly7Ψ(CH2S)Leu8,Arg(Me)9,Trp10]MS10] (Ac-[dY][Hyp]NTF[Glyψ(CH2S)Leu][Arg(Me)]W-NH2), 1.2.
Regarding `CC(=O)N[C@H](Cc1ccc(O)cc1)C(=O)N1C[C@H](O)C[C@H]1C(=O)N[C@@H](CNC(N)=O)C(=O)N[C@H](C(=O)N[C@@H](CC1CCCCC1)C(=O)NC/C=C/[C@@H](CC(C)C)C(=O)N[C@@H](CCCNC(=N)N)C(=O)N[C@@H](Cc1c[nH]c2ccccc12)C(N)=O)[C@@H](C)O` [Compound No. 927, des(1)-Ac-[D-Tyr2,Hyp3,Alb4,Thr5,Cha6,Gly7Ψ((E)CH═CH)Leu8,Trp10]MS10] (Ac-[dY][Hyp][Dap(CONH2)]T[Cha][Glyψ(E-CHCH)Leu]RW-NH2), the “Specific Activity” value is 0.5.
The same measure for `CNC(=N)NCCC[C@H](NC(=O)[C@H](CC(C)C)NC(=O)CNC(=O)[C@H](CC1CC1)NC(=O)[C@@H](NC(=O)[C@H](CC(N)=O)NC(=O)[C@@H]1C[C@@H](O)CN1C(=O)[C@@H](Cc1ccc(O)cc1)NC(C)=O)[C@@H](C)O)C(=O)N[C@@H](Cc1c[nH]c2ccccc12)C(N)=O` [Compound No. 855, des(1)-Ac-[D-Tyr2,Hyp3,Thr5,Ala(cPr)6,Arg(Me)9,Trp10]MS10] (Ac-[dY][Hyp]NT[Ala(cPr)]GL[Arg(Me)]W-NH2): 1.9; for `CNC(=N)NCCC[C@H](NC(=O)[C@H](CC(C)C)NC(=O)CNC(=O)[C@H](Cc1ccccc1)NC(=O)[C@@H](NC(=O)[C@H](CNC(N)=O)NC(=O)[C@@H]1C[C@@H](O)CN1C(=O)[C@@H](Cc1ccc(O)cc1)NC(C)=O)[C@@H](C)O)C(=O)N[C@@H](Cc1c[nH]c2ccccc12)C(N)=O` [Compound No. 885, des(1)-Ac-[D-Tyr2,Hyp3,Alb4,Thr5,Arg(Me)9,Trp10]MS10] (Ac-[dY][Hyp][Dap(CONH2)]TFGL[Arg(Me)]W-NH2): 0.5.
In the case of `CNC(=N)NCCC[C@H](NC(=O)[C@H](CC1CC1)NC(=O)CNC(=O)[C@H](CC1CCC1)NC(=O)[C@@H](NC(=O)[C@H](CC(N)=O)NC(=O)[C@@H]1C[C@@H](O)CN1C(=O)[C@@H](Cc1ccc(O)cc1)NC(C)=O)[C@@H](C)O)C(=O)N[C@@H](Cc1c[nH]c2ccccc12)C(N)=O` [Compound No. 945, des(1)-Ac-[D-Tyr2,Hyp3,Thr5,Ala(cBu)6,Ala(cPr)8,Arg(Me)9,Trp10]MS10] (Ac-[dY][Hyp]NT[Cba]G[Ala(cPr)][Arg(Me)]W-NH2), the “Specific Activity” value is 0.7.
Take `CNC(=N)NCCC[C@H](NC(=O)[C@H](CC(C)C)NC(=O)C/C=C/[C@H](Cc1ccccc1)NC(=O)[C@@H](NC(=O)[C@H](CC(N)=O)NC(=O)[C@@H]1C[C@@H](O)CN1C(=O)[C@@H](Cc1ccc(O)cc1)NC(C)=O)[C@@H](C)O)C(=O)N[C@@H](Cc1c[nH]c2ccccc12)C(N)=O` [Compound No. 859, des(1)-Ac-[D-Tyr2,Hyp3,Thr5,Phe6Ψ((E)CH═CH)Gly7,Arg(Me)9,Trp10]MS10] (Ac-[dY][Hyp]NT[X7]L[Arg(Me)]W-NH2): the “Specific Activity” value is on record as 0.7.
The result for `CCC[C@H](NC(=O)CNC(=O)[C@H](CC1CCCCC1)NC(=O)[C@@H](NC(=O)[C@H](CC(N)=O)NC(=O)[C@@H]1C[C@@H](O)CN1C(=O)[C@@H](Cc1ccc(O)cc1)NC(C)=O)[C@@H](C)O)C(=O)N[C@@H](CCCNC(=N)NC)C(=O)N[C@@H](Cc1c[nH]c2ccccc12)C(N)=O` [Compound No. 921, des(1)-Ac-[D-Tyr2,Hyp3,Thr5,Cha6,Nva8,Arg(Me)9,Trp10]MS10] (Ac-[dY][Hyp]NT[Cha]G[Nva][Arg(Me)]W-NH2) reads 0.5; that for `CNC(=N)NCCC[C@H](NC(=O)[C@H](CC1CC1)NC(=O)CNC(=O)[C@H](CC1CCCCC1)NC(=O)[C@@H](NC(=O)[C@H](CC(N)=O)NC(=O)[C@@H]1C[C@@H](O)CN1C(=O)[C@@H](Cc1ccc(O)cc1)NC(C)=O)[C@@H](C)O)C(=O)N[C@@H](Cc1c[nH]c2ccccc12)C(N)=O` [Compound No. 894, des(1)-Ac-[D-Tyr2,Hyp3,Thr5,Cha6,Ala(cPr)8,Arg(Me)9,Trp10]MS10] (Ac-[dY][Hyp]NT[Cha]G[Ala(cPr)][Arg(Me)]W-NH2), 0.5; that for `CNC(=N)NCCC[C@H](NC(=O)[C@H](CC1CCCCC1)NC(=O)CNC(=O)[C@H](CC1CCCCC1)NC(=O)[C@@H](NC(=O)[C@H](CC(N)=O)NC(=O)[C@@H]1C[C@@H](O)CN1C(=O)[C@@H](Cc1ccc(O)cc1)NC(C)=O)[C@@H](C)O)C(=O)N[C@@H](Cc1c[nH]c2ccccc12)C(N)=O` [Compound No. 934, des(1)-Ac-[D-Tyr2,Hyp3,Thr5,Cha6,8,Arg(Me)9,Trp10]MS10] (Ac-[dY][Hyp]NT[Cha]G[Cha][Arg(Me)]W-NH2), 3.5.
As to `CNC(=N)NCCC[C@H](NC(=O)[C@H](CC1CC1)NC(=O)CNC(=O)[C@H](CC1CCCCC1)NC(=O)[C@@H](NC(=O)[C@H](CC(N)=O)NC(=O)[C@H](CC(=O)O)NC(=O)[C@@H](Cc1ccc(O)cc1)NC(C)=O)[C@@H](C)O)C(=O)N[C@@H](Cc1c[nH]c2ccccc12)C(N)=O` [Compound No. 909, des(1)-Ac-[D-Tyr2,Asp3,Thr5,Cha6,Ala(cPr)8,Arg(Me)9,Trp10]MS10] (Ac-[dY]DNT[Cha]G[Ala(cPr)][Arg(Me)]W-NH2), the “Specific Activity” value is 2.5.
The same measure for `CNC(=N)NCCC[C@H](NC(=O)[C@H](CC(C)C)NC(=O)CNC(=O)[C@H](Cc1ccc(C)cc1)NC(=O)[C@@H](NC(=O)[C@H](CC(N)=O)NC(=O)[C@@H]1C[C@@H](O)CN1C(=O)[C@@H](Cc1ccc(O)cc1)NC(C)=O)[C@@H](C)O)C(=O)N[C@@H](Cc1c[nH]c2ccccc12)C(N)=O` [Compound No. 875, des(1)-Ac-[D-Tyr2,Hyp3,Thr5,Phe(4Me)6,Arg(Me)9,Trp10]MS10] (Ac-[dY][Hyp]NT[Phe(4-Me)]GL[Arg(Me)]W-NH2): 0.9.
The result for `CC[C@H](NC(=O)[C@H](Cc1ccccc1)NC(=O)[C@@H](NC(=O)[C@H](CC(N)=O)NC(=O)[C@@H]1C[C@@H](O)CN1C(=O)[C@@H](Cc1ccc(O)cc1)NC(C)=O)[C@@H](C)O)C(=O)N[C@@H](CC(C)C)C(=O)N[C@@H](CCCNC(=N)NC)C(=O)N[C@@H](Cc1c[nH]c2ccccc12)C(N)=O` [Compound No. 818, des(1)-Ac-[D-Tyr2,Hyp3,Thr5,Abu7,Arg(Me)9,Trp10]MS10] (Ac-[dY][Hyp]NTF[Abu]L[Arg(Me)]W-NH2) reads 1.0.
The result for `CNC(=N)NCCC[C@H](NC(=O)[C@H](CC(C)C)NC(=O)CCC[C@H](Cc1ccccc1)NC(=O)[C@@H](NC(=O)[C@H](CC(N)=O)NC(=O)[C@@H]1C[C@@H](O)CN1C(=O)[C@@H](Cc1ccc(O)cc1)NC(C)=O)[C@@H](C)O)C(=O)N[C@@H](Cc1c[nH]c2ccccc12)C(N)=O` [Compound No. 850, des(1)-Ac-[D-Tyr2,Hyp3,Thr5,Phe6Ψ(CH2CH2)Gly7,Arg(Me)9,Trp10]MS10] (Ac-[dY][Hyp]NT[X9]L[Arg(Me)]W-NH2) reads 1.3; that for `CNC(=N)NCCC[C@H](NC(=O)[C@H](COC)NC(=O)CNC(=O)[C@H](CC1CCCCC1)NC(=O)[C@@H](NC(=O)[C@H](CC(N)=O)NC(=O)[C@H](CCC(=O)O)NC(=O)[C@@H](Cc1ccc(O)cc1)NC(C)=O)[C@@H](C)O)C(=O)N[C@@H](Cc1c[nH]c2ccccc12)C(N)=O` [Compound No. 923, des(1)-Ac-[D-Tyr2,Glu3,Thr5,Cha6,Ser(Me)8,Arg(Me)9,Trp10]MS10] (Ac-[dY]ENT[Cha]GS(Me)[Arg(Me)]W-NH2), 0.5; that for `CNC(=N)NCCC[C@H](NC(=O)[C@@H](/C=C/CNC(=O)[C@H](CC1CCCCC1)NC(=O)[C@@H](NC(=O)[C@H](CCC(=O)O)NC(=O)[C@@H]1C[C@@H](O)CN1C(=O)[C@@H](Cc1ccc(O)cc1)NC(C)=O)[C@@H](C)O)CC(C)C)C(=O)N[C@@H](Cc1c[nH]c2ccccc12)C(N)=O` [Compound No. 915, des(1)-Ac-[D-Tyr2,Hyp3,Glu4,Thr5,Cha6,Gly7Ψ((E)CH═CH)Leu8,Arg(Me)9,Trp10]MS10] (Ac-[dY][Hyp]ET[Cha][Glyψ(E-CHCH)Leu][Arg(Me)]W-NH2), 4.6.
